PubChem BioAssay (NCI)
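Briefly, cells in 96-well plates were exposed to five compound concentrations for 48 h, and endpoints were estimated by linear interpolation. GI50 = concentration required for 50% inhibition of growth. TGI: total growth inhibition.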

Legend:
Test in all cases: inhibition of tumour cell growth, NCI panel, 48 h
[1] = system: SK-MEL-2 melanoma
[2] = system: SF-268 CNS
[3] = system: HT29 colon
[4] = system: ACHN renal
[5] = system: MALME-3M melanoma
[6] = system: PC-3 prostate
[7] = system: HOP-92 NSCLC
[8] = system: NCI-H226 lung
[9] = system: HCC-2998 colon
[10] = system: SF-539 CNS
[11] = system: BT-549 breast
[12] = system: 786-0 renal
[13] = system: RPMI-8226 leukemia
[14] = system: HS 578T breast
[15] = system: MDA-MB-435
[16] = system: M14 melanoma
[17] = system: MCF7 breast
[18] = system: OVCAR-5 ovarian
[19] = system: UO-31 renal
[20] = system: OVCAR-3 ovarian
[21] = system: LOX IMVI melanoma
[22] = system: SN12C renal
[23] = system: SK-OV-3 ovarian
[24] = system: MOLT-4 leukemia
[25] = system: SNB-19 CNS
[26] = system: OVCAR-4 ovarian
[27] = system: SF-295 CNS
[28] = system: RXF 393 renal
[29] = system: COLO 205 colon
[30] = system: SW-620 colon
[31] = system: UACC-62 melanoma
[32] = system: DU-145 prostate
[33] = system: NCI-H460 lung
[34] = system: NCI-H23 lung
[35] = system: HOP-62 NSCLC
[36] = system: HL-60(TB) leukemia
[37] = system: SNB-75 CNS
[38] = system: OVCAR-8 ovarian
[39] = system: MDA-MB-231 breast
[40] = system: TK-10 renal
[41] = system: CCRF-CEM leukemia
[42] = system: KM12 colon
[43] = system: A549 NSCLC
[44] = system: U251 CNS
[45] = system: UACC-257 melanoma
[46] = system: K-562 leukemia
[47] = system: IGROV1 ovarian
[48] = system: SK-MEL-5 melanoma
[49] = system: HCT-116 colon
[50] = system: A498 renal
[51] = system: HCT-15 colon
[52] = system: NCI-H522 lung
[53] = system: SK-MEL-28 melanoma
[54] = system: CAKI-1 renal
[55] = system: T-47D breast
[56] = system: MDA-MB-468 breast
[57] = system: EKVX NSCLC
[58] = system: SR leukemia

## O=C(/C=C/c1ccc(Cl)cc1)c1nc2ccccc2n1Cc1ccc(F)cc1
[1]
  GI50: 14.5 µM
  TGI: 40.1 µM
[2]
  GI50: 19.2 µM
  TGI: > 100 µM
[3]
  GI50: 13.1 µM
  TGI: 31.5 µM
[4]
  GI50: 17.7 µM
  TGI: 51.4 µM
[5]
  GI50: 15.2 µM
  TGI: 34.3 µM
[6]
  GI50: 14.3 µM
  TGI: 58.5 µM
[7]
  GI50: 7.12 µM
  TGI: 79.7 µM
[8]
  GI50: 20.8 µM
  TGI: 62.1 µM
[9]
  GI50: 14.7 µM
  TGI: 28.5 µM
[10]
  GI50: 14.1 µM
  TGI: 27.9 µM
[11]
  GI50: 11.8 µM
  TGI: 30.4 µM
[12]
  GI50: 13.2 µM
  TGI: 28.9 µM
[13]
  GI50: 4.59 µM
  TGI: 53 µM
[14]
  GI50: 19.8 µM
  TGI: > 100 µM
[15]
  GI50: 11.4 µM
  TGI: 29.4 µM
[16]
  GI50: 14.1 µM
  TGI: 32 µM
[17]
  GI50: 3.76 µM
  TGI: 76.4 µM
[18]
  GI50: 17.5 µM
  TGI: 37.2 µM
[19]
  GI50: 9.9 µM
  TGI: 22 µM
[20]
  GI50: 5.05 µM
  TGI: 22.2 µM
[21]
  GI50: 4.97 µM
  TGI: 18.1 µM
[22]
  GI50: 18.7 µM
  TGI: 70.9 µM
[23]
  GI50: 41.2 µM
  TGI: > 100 µM
[24]
  GI50: 4.15 µM
  TGI: > 100 µM
[25]
  GI50: 14.7 µM
  TGI: 33 µM
[26]
  GI50: 23.4 µM
  TGI: > 100 µM
[27]
  GI50: 14.3 µM
  TGI: 33.9 µM
[28]
  GI50: 7.71 µM
  TGI: 21.7 µM
[29]
  GI50: 14.8 µM
  TGI: 32.9 µM
[30]
  GI50: 8.58 µM
  TGI: 28.6 µM
[31]
  GI50: 13.2 µM
  TGI: 30.5 µM
[32]
  GI50: 16.5 µM
  TGI: 63.3 µM
[33]
  GI50: 11 µM
  TGI: 28.4 µM
[34]
  GI50: 14.4 µM
  TGI: 36.8 µM
[35]
  GI50: 14.8 µM
  TGI: 36.8 µM
[36]
  GI50: 9.53 µM
  TGI: 47.1 µM
[37]
  GI50: 2.9 µM
  TGI: > 100 µM
[38]
  GI50: 13.9 µM
  TGI: 42.5 µM
[39]
  GI50: 16.4 µM
  TGI: 42 µM
[40]
  GI50: 20 µM
  TGI: 75.8 µM
[41]
  GI50: 4.12 µM
  TGI: > 100 µM
[42]
  GI50: 11.9 µM
  TGI: 45.7 µM
[43]
  GI50: 22.9 µM
  TGI: > 100 µM
[44]
  GI50: 10.3 µM
  TGI: 25.2 µM
[45]
  GI50: 19.5 µM
  TGI: 86.8 µM
[46]
  GI50: 6.18 µM
  TGI: > 100 µM
[47]
  GI50: 14.5 µM
  TGI: 41.9 µM
[48]
  GI50: 15.2 µM
  TGI: 36.2 µM
[49]
  GI50: 11.8 µM
  TGI: 25.2 µM
[50]
  GI50: > 100 µM
  TGI: > 100 µM
[51]
  GI50: 7.86 µM
  TGI: 23.4 µM
[52]
  GI50: 13.7 µM
  TGI: 31.4 µM
[53]
  GI50: 14.9 µM
  TGI: 32.5 µM
[54]
  GI50: 7.89 µM
  TGI: 43 µM
[55]
  GI50: 5.89 µM
  TGI: 33.9 µM
[56]
  GI50: 10.4 µM
  TGI: 28 µM
[57]
  GI50: 17.5 µM
  TGI: 44.9 µM
[58]
  GI50: 5.12 µM
  TGI: > 100 µM
